Assay results taken from US7332290B2, “Dectection of AMACR cancer markers in urine” (The Regents of the University of Michigan, priority 2001, dated 2008).
Peptide text beside a SMILES is read from it. * marks the point of attachment. Cbz = O=C(OCc1ccccc1)*; CH2F = FC*

What was measured:
Format in all cases: cell-based
HDAC activity = experiment: DNA microarray of EZH2-transfected cells, EZH2-mediated gene silencing
From the text: Other molecules have been similarly tested with this approach. Cells were transfected with different EZH2 constructs and transfection efficiency was monitored by beta-galactosidase assay and was approximately 30-50%. EZH2.SET mutant expressing samples were compared to EZH2 expressing samples using the SAM analysis package (Tusher et al., PNAS 98:5116 [2001]). Data was pre-processed by multiplication by a normalization factor to adjust the aggregate ratio of medians to one, log base 2 transformed and median centered each array, individually. This pre-processed data was divided into 2 groups for comparison using a two-class, unpaired t-test. […] These 161 genes were supplemented by the values for EZH2 and then analyzed using Cluster implementing average linkage hierarchical clustering of genes. […]
PcG proteins have been proposed to mediate their functions by repression of target genes (Laible et al., supra; Jacobs et al., Semin Cell Dev. Biol. 10:227 [1999]). To begin to test this hypothesis, RWPE prostate cells were transiently transfected with wild-type EZH2 and global gene expression alterations were monitored using DNA microarrays. […]

prostate cells = experiment: WST-1 cell proliferation assay after siRNA transfection; conditions: WST-1, caspase inhibitor added to EZH2 siRNA treated cells
Experimental: 21-nucleotide sense and antisense RNA oligonucleotides were chemically synthesized (Dharmacon Research Inc.) and annealed to form duplexes. The siRNA employed in the study were targeted to the region corresponding from 85 to 106 of the reported human EZH2 (NM004456). Control siRNA duplexes targeted luciferase, lamin and AMACR (NM014324). The human transformed prostate cell line RWPE (Webber et al., Carcinogenesis 18:1225 [1997]) and PC3 were plated at 2×10^5 cells per well in a 12 well plate (for immunoblot analysis, cell counts, and fluorescence activated cell sorting (FACS) analysis) and 1.5×10^4 cell per well in a 96 well plate (for WST-1 proliferation assays). Twelve hours after plating, the cells were transfected with 60 picomoles of siRNA duplex, sense or antisense oligonucleotides (targeting EZH2) using oligofectamine (Invitrogen). […] Cell viability was assessed 60 hours after the initial transfection.
Cell proliferation was determined with the colorimetric assay of cell viability, based on the cleavage of tetrazolium salt WST-1 by mitochondrial dehydrogenases as per manufacturers instructions (Roche, Inc.). The absorbance of the formazan dye formed, which directly correlates with the number of metabolically active cells in the culture, was measured at 450 nm (Bio-Tek instruments), an hour after the addition of the reagent. […]

LNCaP cells = experiment: Androgen/anti-androgen treatment of LNCaP cells, Western blot of AMACR and PSA; conditions: LNCaP cells exposed to synthetic androgen, 1 nM, 24 and 48 h
Experimental: Prostate cell lines (RWPE-1, LNCaP, PC3 and DU145) were obtained from the American Tissue Culture Collection. Cells were maintained in RPMI-1640 with 8% decomplemented fetal bovine serum, 0.1% glutamine and 0.1% penicillin and streptomycin (BioWhittaker, Walkersville, Md.). Cells were grown to 75% confluence and then treated for 24 and 48 with the antiandrogen bicalutamide (CASODEX, Zeneca Pharmaceuticals, Plankstadt, Germany) at a final concentration of 20 μM or with methyltrienolone (synthetic androgen (R1881); NEN, Life Science Products, Boston, Mass.) at a final concentration of 1 nM. Cells were harvested and lysed in NP-40 lysis buffer containing 50 mmol/L Tris-HCl, pH 7.4, 1% Nonidet P-40 (Sigma, St. Louis, Mo.) and complete proteinase inhibitor cocktail (Roche, Ind., USA). 15 μg of protein extracts were mixed with SDS sample buffer and electrophoresed onto a 10% SDS-polyacrylamide gel under reducing conditions. After transferring, the membranes (Amersham Pharmacia Biotech, Piscataway, N.J.) were incubated for 1 hour in blocking buffer (Tris-buffered saline with 0.1% Tween and 5% nonfat dry milk). The AMACR antibody was applied at 1:10.000 diluted blocking buffer overnight at 4° C. […]

## CC(/C=C/C(=O)NO)=C\[C@@H](C)C(=O)c1ccc(N(C)C)cc1 [trichostatin A]
HDAC activity
  effect on EZH2-mediated gene silencing: completely abrogated the effects of EZH2

## COC(=O)C[C@H](NC(=O)[C@H](C)NC(=O)[C@@H](NC(=O)OCc1ccccc1)C(C)C)C(=O)CF [z-VAD-fmk] (Cbz-Val-Ala-Asp(OMe)-CH2F)
Prostate cells
  attenuation of EZH2 siRNA induced inhibition of cell proliferation: failed to attenuate

## C[C@]1(O)CC[C@H]2[C@@H]3CCC4=CC(=O)CCC4=C3C=C[C@@]21C [R1881, methyltrienolone]
LNCaP cells
  AMACR expression: no increase in AMACR expression
